Source: US10195174B2, “Carbonic anhydrase IX-related markers and use thereof” (SIGNALCHEM LIFESCIENCES CORPORATION, priority 2011, dated 2019)

Assays:
parental 4T1 cell line = experiment: Tumorsphere (TS) formation from doubling dilutions, minimum number of cells required to form a TS; type: cell-based, mouse; conditions: parental 4T1, hypoxia, 7 days, 200 μM CAI17 (FIG. 6) vs vehicle
Method: FIG. 6 is a graph of the number of cells required to initiate TS growth. Parental 4T1 were seeded at doubling dilutions and cultured under TS-forming conditions with 200 μM CAI17 or vehicle added, in normoxia or hypoxia. Mean±SEM of three independent experiments is shown. Statistical significance was confirmed using T-test, *P<0.001, **P<0.0060.
For culture in hypoxia, cells were maintained in 1% O2 and 5% CO2 balanced with N2 at 37 degrees C. in a humidified incubator in a sealed anaerobic workstation. Stable depletion of murine CAIX in 4T1 cells was carried out as described previously (Lou, McDonald et al. 2011).
Cultured 4T1 cells were grown as monolayers with twice weekly sub-cultivation in DMEM (Gibco) containing 5% fetal bovine serum (FBS) (Sigma). Subsequently, parental, shNS and shCAIX 4T1 were cultured as Tumor Spheres (TSs) in Mammocult™ media (StemCell Technologies, Vancouver, B.C., Canada) as per the manufacturer's instructions (Lock, McDonald et al. 2012). Alternatively, for spinner culture TS growth, monolayer cells were trypsinized and single-cell suspensions were incubated at 2×10^5 to 4×10^5 cells/ml in sealed glass spinner culture flasks (Bellco, Vineland, N.J.) under constant rotation, at 150 RPM, 37° C. in DMEM (5% FBS) pre-equilibrated to 5% CO2 as previously described (Oloumi, MacPhail et al. 2000). Cultures were grown for up to 3 weeks. […]

[1] = tested on: MDA-MB-231 LM2-4 breast cancer cells; experiment: CAIX inhibitor with and without paclitaxel: tumor volume, lung metastases (IVIS) and EpCAM+ population (FACS); type: in vivo, NOD-SCID mice; conditions: tumors excised at humane end point, vs vehicle controls, three tumors per group
Method: MDA-MB-231 LM2-4 Luc+ cells were implanted into NOD/SCID mice, tumors were established for 10 days and treatment was then initiated. Paclitaxel was administered by i.v. injection and MST-104 was provided by i.p. injection according to the dosing schedule outlined in the graph (arrows). n=7-8/group. *P<0.02, **P<0.002.
Heat maps indicating metastases are overlaid on grayscale images of the lungs.
The mean total photon flux±SEM for each group is shown.
FIGS. 29A-29E show representative FACS data. NOD-SCID mice mammary fat pad were inoculated with MDA-MB-231 LM2-4 breast cancer cells. Mice were IV dosed with Paclitaxel, or MST-104, or both drugs in combination, or vehicle. At the humane end point, tumours were excised and the viable EpCAM positive population was assessed by FACS.
At the humane end point, tumors were excised and the viable EpCAM positive population was assessed by FACS. […]
All animal procedures and studies were carried out in accordance with protocols approved by the Institution Animal Care Committee at the BC Cancer Research Centre and the University of British Columbia (Vancouver, BC, Canada). […] Primary tumor growth rates were calculated from caliper measurements using the modified ellipsoid formula (L×W2)/2. Tumor formation and metastasis progression was monitored and quantified using bioluminescent imaging as previously described (Lou, McDonald et al. 2011). […]

[2] = tested on: MDA-MB-231 LM2-4Luc+ primary breast tumor xenografts; experiment: Primary tumor growth of orthotopic breast tumor xenografts; type: in vivo, NOD/SCID mice; conditions: 38 mg/kg MST-104 or 30 mg/kg MST-205, vs vehicle controls, n=8/group
Method: FIG. 21 is a graphical representation of in vivo tumor growth. MDA-MB-231 LM2-4luc+ were implanted orthotopically into NOD/SCID mice. When tumors reached an average of […], animals received either vehicle, 38 mg/kg MST-104 or 30 mg/kg MST-205. Subsequent tumor growth was monitored. n=8/group.*P<0.02, **P<0.01.
All animal procedures and studies were carried out in accordance with protocols approved by the Institution Animal Care Committee at the BC Cancer Research Centre and the University of British Columbia (Vancouver, BC, Canada). For primary breast tumor xenografts, 2×10^6 MDA-MB-231 LM2-4Luc+ variant cells were suspended in a 50% Matrigel™/PBS solution and implanted orthotopically in 6-8 week-old female NOD.CB17-prkdcscid/J mice as previously described (Lou, McDonald et al. 2011). Therapy was initiated when tumors reached 200 mm^3. Primary tumor growth rates were calculated from caliper measurements using the modified ellipsoid formula (L×W2)/2. Tumor formation and metastasis progression was monitored and quantified using bioluminescent imaging as previously described (Lou, McDonald et al. 2011).
To evaluate the effect of CAIX inhibition on tumor growth and cancer stem cell expansion in vivo, primary breast tumor xenografts were established using a variant of the MDA-MB-231 cell line, MDA-MB-231 LM2-4Luc+. […] Tumor growth was assessed by caliper measurement and IVIS imaging.

[3] = tested on: EpCAM+ population of MDA-MB-231 LM2-4Luc+ tumors; experiment: EpCAM+ cancer stem cell population of excised primary tumors by FACS; type: in vivo, NOD/SCID mice; conditions: 27 days, 38 mg/kg MST-104 or 30 mg/kg MST-205, vs vehicle (mean 10% EpCAM+)
Method: FIGS. 22A and 22B are representative FACS plots (FIG. 22A) and a bar graph (FIG. 22B), showing the mean changes in EpCAM+ cells±SEM, from 3 mice. MDA-MB-231 LM2-4luc+ were implanted orthotopically into NOD/SCID mice. When tumors reached an average of […], animals received either vehicle or 38 mg/kg MST-104. After 27 days, primary tumors were removed, dissociated and EpCAM+ cell population assessed by FACS analysis. Statistical significance was confirmed using T-test. ***P<0.0331, **P<0.0224.
FIGS. 23A and 23B are representative FACS plots (FIG. 23A) and a bar graph (FIG. 23B) showing MDA-MB-231 LM2-4luc+ cells that were implanted orthotopically into NOD/SCID mice. […] After 27 days, primary tumors were removed, dissociated and EpCAM+ cell population assessed by FACS analysis. […]
All animal procedures and studies were carried out in accordance with protocols approved by the Institution Animal Care Committee at the BC Cancer Research Centre and the University of British Columbia (Vancouver, BC, Canada). […] Primary tumor growth rates were calculated from caliper measurements using the modified ellipsoid formula (L×W2)/2. Tumor formation and metastasis progression was monitored and quantified using bioluminescent imaging as previously described (Lou, McDonald et al. 2011).
The effect of CAIX inhibition on the primary tumor cancer stem cell population in vivo was quantified. […]

[4] = tested on: mTORC1 signaling pathway in MDA-MB-231 LM2-4Luc+ tumor cells; experiment: Western blot of mTOR pathway components in tumor cells isolated from treated tumor-bearing mice; parameters: species or system NOD/SCID mice; conditions: in vivo treated tumors
From the text: Levels of expression of Actin and GAPDH are shown as loading controls.
To assess the effect of inhibition of CAIX activity on the mTOR pathway by breast cancer cells in vivo, orthotopic human primary breast tumors using MDA-MB-231 LM2-4Luc^+ cells were established in NOD/SCID mice and treated tumor-bearing animals with vehicle or the CAIX-specific inhibitor MST-104. At the experimental end point, primary tumors were removed, dissociated and viable tumor cells lysed and subjected to Western blotting (Lock, McDonald et al. 2012). […] Raptor expression was not regulated following CAIX inhibition in vivo (Raptor/Actin densitometry: Vehicle 0.64 mean±0.05 SEM; U-104 mean 0.69±0.14 SEM).

[5] = tested on: parental 4T1 CD44+CD24−/low cells; experiment: E-cadherin immunostaining of FACS-sorted 4T1 populations cultured in hypoxia with or without CAIX inhibitor; type: cell-based, mouse; conditions: hypoxia 5 days, 50 μM MST-104, vs vehicle
Method: FIG. 20 are images of parental 4T1 cells cultured as TSs in normoxia, disaggregated, stained for CD44, CD24 and collected by FACS. Viable CD44+CD24−/low or CD44−CD24+ cells were collected and cultured on glass coverslips in hypoxia for 5 days, with and without 50 μM MST-104, fixed and assessed by immunostaining for expression of E-cadherin.
4T1 TSs were incubated with trypsin, washed once in HF buffer (HBSS containing 2% Fetal Bovine Serum), then stained with anti-CD24-APC and anti-CD44-PECy7 using 0.3 μl of antibody per […] in 100 ul HF, and incubated on ice for 10 min. Following incubation, cells were washed once with HF buffer and resuspended in 300 ul HF buffer containing 4′,6-diamidino-2-phenylindole (DAPI; final concentration, 1 μg/ml). Cells were separated on an Aria™ cell sorter (BD Biosciences, San Jose, Calif., USA). Live cells were gated on the basis of forward and side scatter, and single cells were gated on the basis of forward scatter and pulse width. Gates were determined by analysis of unstained cells, isotype specific controls, and single stains. The CD44+CD24−/low or […] cells were not assessed for purity due to the low numbers of cells obtained. The cell counter of the flow cytometers was used to determine cell numbers. Cells were collected into DMEM media or HF buffer. […]

Row | Compound | number of seeding cells required to form a TS (parental 4T1 cell line) | viable EpCAM positive population (mean percentage of EpCAM+ CSC) [1] | primary tumor growth (tumor volume) [2] | EpCAM+ population of primary tumors [3] | Raptor expression ([4]; Western blot, vs vehicle) | expression of the mTORC1 component mTOR ([4]; Western blot, vs vehicle) | mTORC1 signaling pathway ([4]; Western blot, vs vehicle) | phosphorylation and expression of 4EBP1 ([4]; Western blot, vs vehicle) | phosphorylation of Ser939 TSC2 ([4]; Western blot, vs vehicle) | Raptor/Actin densitometry ([4]; mean ± SEM (vehicle 0.64 ± 0.05)) | E-cadherin staining [5]
1 | NS(=O)(=O)c1ccc(CCNC(=S)Nc2ccc(-c3c4ccc(=O)cc-4oc4cc(O)ccc34)c(C(=O)O)c2)cc1 [CAI017] | significantly increased | – | – | – | – | – | – | – | – | – | –
2 | CC(=O)O[C@H]1C(=O)[C@@]2(C)[C@H]([C@H](OC(=O)c3ccccc3)[C@]3(O)C[C@H](OC(=O)[C@H](O)[C@@H](NC(=O)c4ccccc4)c4ccccc4)C(C)=C1C3(C)C)[C@]1(OC(C)=O)CO[C@@H]1C[C@@H]2O [paclitaxel, reference compound] | – | increase in the mean percentage of EpCAM+CSC | – | – | – | – | – | – | – | – | –
3 | NS(=O)(=O)c1ccc(NC(=O)Nc2ccc(F)cc2)cc1 [MST-104] | – | significant decrease | significant inhibition of primary tumor growth | statistically significant reduced EpCAM+ population | not regulated | abolished | inhibition of the mTORC1 signaling pathway | depleted phosphorylation and expression | reduced phosphorylation | 0.69±0.14 | robust E-cadherin staining
